Patent US6891062B2, “Pharmaceutical composition for treatment of diseases associated with decrease in bone mass” (Ono Pharmaceutical Co., Ltd., priority 1999, dated 2005)

Test system: Beagle/CSK strain dogs
Assay: Promoting action on bone formation: determination of bone area of femur
Assay type: in vivo, dog
Details: for bone area: dog femur, 4 weeks
Excerpt: Beagle/CSK strain dogs of 6-month old were used (n=3 to 6 per group). Into a physical saline solution, each (11 α, 15 α, 13E)-9-oxo-11,15-dihydroxy-16-(3-methoxymethylphenyl)-17,18,19,20-tetranor-5-t hiaprost-13-enoic acid methyl ester (methyl ester of a compound of the formula (IE)) α-cyclodextrin clathrate (containing rate of an active ingredient in α-cyclodextrin clathrate form is 25% w/w), (11 α, 15 α, 13E)-9-oxo-11,15-dihydroxy-16-(3-methoxymethylphenyl)-17,18,19,20-tetranor-3,7-dithiaprost-13-enoic acid (a compound of the formula (IF)), (9β, 11 α, 15 α, 5Z, 13E)-9-chloro-11,15-dihydroxy-16-(3-ethoxymethylphenyl)-17,18,19,20-tetranorpro st-5,13-dienoic acid (a compound of the formula (IG)), (11 α, 15 α, 13E)-9-oxo-11,15-dihydroxy-16-(3-methoxymethylphenyl)-17,18,19,20-tetranorpro st-13-enoic acid (methyl ester of a compound of the formula (IH)), and (11 α, 15 α, 5Z, 13E)-9-oxo-11,15-dihydroxy-16-(3-ethoxymethylphenyl)-17,18,19,20-tetranorprost-5,13-dienoic acid (a compound of the formula (IJ)) was dissolved, and administered continuously to each animal at the effective doses of 2, 5, 10 and 25 μg/kg/day, for 24 hours per day during 4 weeks. Each test solution was administered into femoral vein through holding-catheter at the rate of 0.2 ml/kg/hour. An equal volume of physical saline solution was administered into an animal of the control group. After termination of administration, each animal was sacrificed to carry out autopsy. The separated femur was fixed with 10% buffered formalin solution and then was cut into a round slice with the width of 10 mm vertically to longitudinal axis at the 25 mm central side from trochlea sulcus. Pictures of bone surface near side of epiphysis were taken with camera connected to the computer from the constant distance, and then the resulted digital image was analyzed to determine bone area.

[1] = 5 μg/kg/day continuous into femoral vein

## COCc1cccc(C[C@H](O)/C=C/[C@H]2[C@H](O)CC(=O)[C@@H]2SCCCSCC(=O)O)c1 [Invention compound (IF), (11 α, 15 α, 13E)-9-oxo-11,15-dihydroxy-16-(3-methoxymethylphenyl)-17,18,19,20-tetranor-3,7-dithiaprost-13-enoic acid]
[1]
  bone area: 365.29 ± 73.63 mm^2

## CCOCc1cccc(C[C@H](O)/C=C/[C@@H]2[C@@H](C/C=C\CCCC(=O)O)[C@H](Cl)C[C@H]2O)c1 [Invention compound (IG), (9β, 11 α, 15 α, 5Z, 13E)-9-chloro-11,15-dihydroxy-16-(3-ethoxymethylphenyl)-17,18,19,20-tetranorpro st-5,13-dienoic acid]
10 μg/kg/day continuous into femoral vein
  bone area: 140.10 ± 28.08 mm^2
25 μg/kg/day continuous into femoral vein
  bone area: 289.38 ± 120.50 mm^2
dog, 25 μg/kg/day
  increase of bone area compared with Untreated Group: 4.2 fold

## COCc1cccc(C[C@H](O)/C=C/[C@H]2[C@H](O)CC(=O)[C@@H]2CCCCCCC(=O)O)c1 [Invention compound (IH), (11 α, 15 α, 13E)-9-oxo-11,15-dihydroxy-16-(3-methoxymethylphenyl)-17,18,19,20-tetranorpro st-13-enoic acid]
[1]
  bone area: 362.99 ± 89.56 mm^2

## CCOCc1cccc(C[C@H](O)/C=C/[C@H]2[C@H](O)CC(=O)[C@@H]2C/C=C\CCCC(=O)O)c1 [Invention compound (IJ), (11 α, 15 α, 5Z, 13E)-9-oxo-11,15-dihydroxy-16-(3-ethoxymethylphenyl)-17,18,19,20-tetranorprost-5,13-dienoic acid]
[1]
  bone area: 193.23 ± 11.32 mm^2
